From patent US20230210797A1, “PREVENTING AND TREATING HYPOGLYCEMIA” (DIAMYD MEDICAL AB, priority 2019, published 2023)

Legend:
[1] = Time spent below, within and above normal blood glucose range (4-10 mmol/L), FreeStyle Libre Pro FGM; assay type: in vivo, human; conditions: for Time above range, Mean / Time above range, Median / Time below range, Mean / Time below range, Median / Time within range, Mean / Time within range, Median: normal blood glucose range 4-10 mmol/L, n=6
Description: The FreeStyle Libre Pro FGM System is a professional glucose monitoring device indicated for detecting trends and tracking patterns and glucose level excursions above or below the desired range, facilitating therapy adjustments in persons with diabetes. Readings from the FreeStyle Libre Pro FGM System are not made available directly to patients in real time. The FreeStyle Libre Pro FGM System aids in the detection of episodes of hyperglycemia and hypoglycemia, facilitating therapy adjustments.
Patients will receive the Freestyle Libre Pro at the site at Visit 1 and Visit 2 in the Safety and Dose Escalation study and will be instructed how to return the FreeStyle Libre to the site after each of the testing period. For the main study patients will receive the Freestyle Libre Pro at the site during Visit 1 (all Treatment arms), Visit 7 (Treatment arm 1), Visit 8 (Treatment arm 2 and 3) and will be instructed how to return the FreeStyle Libre to the site after each of the testing period. However, for Visit 9 (Treatment arm 1) and Visit 10 (Treatment arm 2 and 3) patients will be instructed to come to the site 14 days before the visit to receive the Freestyle Libre and have it activated. The patients will then return the Freestyle Libre at Visit 9 or Visit 10, depending on treatment arm. The timing of the distribution of the glucose monitoring system and assessments is described in Above.
Blood glucose levels for all six patients in the dose escalation part of the study was measured during certain time intervals to determine time spent in, above, and below normal blood glucose range (4-10 mmol/L).

glucagon = experiment: Hypoglycemic clamp: plasma glucagon levels; assay type: in vivo, human; conditions: for Glucagon levels, Change from baseline, Mean (SD) / Glucagon levels, Change from baseline, Median (Min, Max) / Glucagon levels, Observed value, Mean (SD) / Glucagon levels, Observed value, Median (Min, Max): C-peptide undetectable
Procedure: In order to evaluate the counterregulatory hormone response to hypoglycemia, a hypoglycemic clamp will be performed. The Hypoglycemic Clamp must be performed according to the instructions in the Operations Manual. (Appendix 3)
The patient should: • Come to the study site following an overnight fast (>10 hours), i.e. the patient may not eat but is permitted to drink water • Not have taken the Remygen and, if applicable, Alprazolam dose in the morning • Not take short acting/direct acting insulin within 6 hours before the investigation. • The patient is allowed to take base-insulin day/night before, but not in the morning before the investigation.
Patients with CSII (insulin pump) must continue with their basal dose insulin, but not add bolus dose during the last 6 hours before the investigation.
If a patient has a blood sugar level <4 mmol/L in the morning of the scheduled visit, the patient is allowed to take dextrose tablets and then come to the study site. The patient is allowed to perform the investigation if the blood sugar level is >4 mmol/L.
In the dose-escalation part of the study, the patient will take study drug 30 min prior to start of the hypoglycemic clamp. In the main study, the study drug will instead be taken after finalization of the hypoglycemic clamp. Baseline blood samples will be obtained for glucose, glucagon, epinephrine, norepinephrine, growth hormone and cortisol. The clamp will then be initiated by an intravenous insulin infusion at a rate of 2 mU×kg^−1×min^−1. Glucose 100 mg/ml will then be administered in variable infusion rates to clamp the blood glucose concentration at 5.5 mmol/land then at 2.5 mmol/land kept stable for 30 min. Blood glucose will be evaluated repeatedly in order to find the optimal glucose infusion rate. Blood sampling to determined levels of counterregulatory hormones as described above will be performed at each of these target levels when a stable glucose concentration has been reached. The insulin infusion will thereafter be terminated and the patient is allowed to eat and will be observed until normoglycemia is achieved. If necessary, additional glucose administration will be given to allow blood glucose concentrations to normalize.
Plasma glucose was first lowered to normoglycemic levels (5.5 mmol/L) and hormone levels monitored, and then to hypoglycemic levels (2.5 mmol/L) and hormone levels monitored. Difference was calculated as a measurement of the response to hypoglycemia.

[2] = normal range 4-10 mmol/L, all six patients of dose escalation part
[3] = Visit 5, 200 mg GABA per day, Event 2.5 mmol/L
[4] = Visit 5, 200 mg GABA per day, Event 5.5 mmol/L
[5] = Visit 5, 200 mg GABA per day, Event Baseline
[6] = Visit 5, 200 mg GABA per day, Event Diff 2.5-5.5 mmol/L
[7] = Visit 7, 600 mg GABA per day, Event 2.5 mmol/L
[8] = Visit 7, 600 mg GABA per day, Event 5.5 mmol/L
[9] = Visit 7, 600 mg GABA per day, Event Baseline
[10] = Visit 7, 600 mg GABA per day, Event Diff 2.5-5.5 mmol/L
[11] = Visit 9, 1200 mg GABA per day, Event 2.5 mmol/L
[12] = Visit 9, 1200 mg GABA per day, Event 5.5 mmol/L
[13] = Visit 9, 1200 mg GABA per day, Event Baseline
[14] = Visit 9, 1200 mg GABA per day, Event Diff 2.5-5.5 mmol/L

NCCCC(=O)O [GABA, Gamma-amino butyric acid]
Time above range, Mean ([1]; Day 3 to 4): 28.7% | Time above range, Median ([1]; Day 3 to 4): 28.8% | Time below range, Mean ([1]; Day 3 to 4): 14.8% | Time below range, Median ([1]; Day 3 to 4): 14.3% | Time within range, Mean ([1]; Day 3 to 4): 56.6% | Time within range, Median ([1]; Day 3 to 4): 62.0% | Time above range, Mean ([1]; Day 6 to 7): 37.7% | Time above range, Median ([1]; Day 6 to 7): 36.5% | Time below range, Mean ([1]; Day 6 to 7): 4.8% | Time below range, Median ([1]; Day 6 to 7): 4.0% | Time within range, Mean ([1]; Day 6 to 7): 57.6% | Time within range, Median ([1]; Day 6 to 7): 59.5% | Time above range, Mean ([1]; Day 9): 39.5% | Time above range, Median ([1]; Day 9): 50.0% | Time below range, Mean ([1]; Day 9): 5.5% | Time below range, Median ([1]; Day 9): 2.5% | Time within range, Mean ([1]; Day 9): 55.0% | Time within range, Median ([1]; Day 9): 47.0% | Time above normal blood glucose range, effect of GABA treatment [1, 2]: decreased | Time below normal blood glucose range, effect of GABA treatment [1, 2]: decreased | Time in normal blood glucose range, effect of GABA treatment [1, 2]: increased | Glucagon levels, Change from baseline, Mean (SD) (glucagon; [3]): 2.12 pmol/L | Glucagon levels, Change from baseline, Median (Min, Max) (glucagon; [3]): 1.60 pmol/L | Glucagon levels, Observed value, Mean (SD) (glucagon; [3]): 4.88 (2.44) pmol/L | Glucagon levels, Observed value, Median (Min, Max) (glucagon; [3]): 4.80 pmol/L | Glucagon levels, Change from baseline, Mean (SD) (glucagon; [4]): -0.11 pmol/L | Glucagon levels, Change from baseline, Median (Min, Max) (glucagon; [4]): 0.00 pmol/L | Glucagon levels, Observed value, Mean (SD) (glucagon; [4]): 2.08 (1.33) pmol/L | Glucagon levels, Observed value, Median (Min, Max) (glucagon; [4]): 2.20 pmol/L | Glucagon levels, Change from baseline, Mean (SD) (glucagon; [5]): 0.46 pmol/L | Glucagon levels, Change from baseline, Median (Min, Max) (glucagon; [5]): 0.60 pmol/L | Glucagon levels, Observed value, Mean (SD) (glucagon; [5]): 3.92 (1.03) pmol/L | Glucagon levels, Observed value, Median (Min, Max) (glucagon; [5]): 3.60 pmol/L | Glucagon levels, Change from baseline, Mean (SD) (glucagon; [6]): 2.23 pmol/L | Glucagon levels, Change from baseline, Median (Min, Max) (glucagon; [6]): 1.85 pmol/L | Glucagon levels, Observed value, Mean (SD) (glucagon; [6]): 2.80 (2.07) pmol/L | Glucagon levels, Observed value, Median (Min, Max) (glucagon; [6]): 2.60 pmol/L | Glucagon levels, Change from baseline, Mean (SD) (glucagon; [7]): 1.64 pmol/L | Glucagon levels, Change from baseline, Median (Min, Max) (glucagon; [7]): 1.40 pmol/L | Glucagon levels, Observed value, Median (Min, Max) (glucagon; [7]): 4.20 pmol/L | Glucagon levels, Change from baseline, Mean (SD) (glucagon; [8]): -0.66 pmol/L | Glucagon levels, Change from baseline, Median (Min, Max) (glucagon; [8]): -0.60 pmol/L | Glucagon levels, Observed value, Mean (SD) (glucagon; [8]): 1.53 (1.32) pmol/L | Glucagon levels, Observed value, Median (Min, Max) (glucagon; [8]): 0.75 pmol/L | Glucagon levels, Change from baseline, Mean (SD) (glucagon; [9]): -0.42 pmol/L | Glucagon levels, Change from baseline, Median (Min, Max) (glucagon; [9]): -0.70 pmol/L | Glucagon levels, Observed value, Mean (SD) (glucagon; [9]): 3.04 (0.66) pmol/L | Glucagon levels, Observed value, Median (Min, Max) (glucagon; [9]): 3.10 pmol/L | Glucagon levels, Change from baseline, Mean (SD) (glucagon; [10]): 2.30 pmol/L | Glucagon levels, Change from baseline, Median (Min, Max) (glucagon; [10]): 2.10 pmol/L | Glucagon levels, Observed value, Mean (SD) (glucagon; [10]): 2.87 (1.96) pmol/L | Glucagon levels, Observed value, Median (Min, Max) (glucagon; [10]): 2.95 pmol/L | Glucagon levels, Change from baseline, Mean (SD) (glucagon; [11]): 3.16 pmol/L | Glucagon levels, Change from baseline, Median (Min, Max) (glucagon; [11]): 3.30 pmol/L | Glucagon levels, Observed value, Mean (SD) (glucagon; [11]): 5.92 (3.70) pmol/L | Glucagon levels, Observed value, Median (Min, Max) (glucagon; [11]): 5.60 pmol/L | Glucagon levels, Change from baseline, Mean (SD) (glucagon; [12]): -0.58 pmol/L | Glucagon levels, Change from baseline, Median (Min, Max) (glucagon; [12]): -0.80 pmol/L | Glucagon levels, Observed value, Mean (SD) (glucagon; [12]): 1.61 (1.18) pmol/L | Glucagon levels, Observed value, Median (Min, Max) (glucagon; [12]): 0.75 pmol/L | Glucagon levels, Change from baseline, Mean (SD) (glucagon; [13]): 0.96 pmol/L | Glucagon levels, Change from baseline, Median (Min, Max) (glucagon; [13]): 0.50 pmol/L | Glucagon levels, Observed value, Median (Min, Max) (glucagon; [13]): 3.90 pmol/L | Glucagon levels, Change from baseline, Mean (SD) (glucagon; [14]): 3.74 pmol/L | Glucagon levels, Change from baseline, Median (Min, Max) (glucagon; [14]): 3.30 pmol/L | Glucagon levels, Observed value, Mean (SD) (glucagon; [14]): 4.31 (4.33) pmol/L | Glucagon levels, Observed value, Median (Min, Max) (glucagon; [14]): 2.60 pmol/L | Counter regulatory response of Glucagon, effect of GABA treatment (glucagon; change in levels when clamping to 2.5 mmol/L from 5.5 mmol/L): increased | Normoglycemic levels of Glucagon, effect of GABA treatment (glucagon; clamped to 5.5 mmol/L): decrease | Circulating glucagon concentrations, effect of GABA (glucagon; type 1 diabetes individuals with pathologically increased glucagon): lower
